This data set in a line: Solubility of 1-aminocyclopropanecarboxylic acid in solvents. Type of data set: physicochemical.

Structures are written as SMILES.

`NC1(C(=O)O)CC1` [1-aminocyclopropanecarboxylic acid]: for the setting “solvent methanol”, the solubility in methanol entry is recorded as “about 1.0 % (wt/wt)”. For the same compound, the “solubility in organic acid having one to five carbon atoms” value (solvent: organic acid having one to five carbon atoms (e.g. acetic acid)) was “highly soluble”.

The record behind these values is patent US20060030730A1, “Purification and production methods of 1-aminocyclopropanecarboxylic acid” (Daicel Chemical Industries, Ltd., priority 2004, published 2006).
